Data reported in patent US20050101595A1, “N-containing cycloalkyl-substituted amino-thiazole derivatives and pharmaceutical compositions for inhibiting cell proliferation and methods for their use” (PFIZER INC., priority 2003, published 2005).
Where a name gives a salt, the structure may show the parent alone. Read-outs that look alike come from different tables or passages of the source.

Key:
CDK2/Cyclin A = CDK2/Cyclin A (Homo sapiens, UniProt P24941); assay: Inhibition of CDK2/Cyclin A Retinoblastoma Kinase Activity; type: biochemical; details: for CDK2 % Inhibition At 0.03 μM: 0.03 μM compound, Table 2; for Ki: apparent Ki, CDK2/proteolyzed cyclin A, Rb fragment substrate, 25 μM ATP
Method in brief: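 CDK2 (10 or 19 nM), insect-cell expressed, gel-filtration purified with truncated cyclin A; Rb fragment substrate; 25 μM ATP; 10 mM HEPES pH 7.4, 10 mM MgCl2; 30° C, 60 or 75 min; EDTA stop; phosphocellulose/nitrocellulose capture, phosphorimager. % inhibition vs DMSO control, no-enzyme background subtracted.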

[1] = target: human CDK4 and genetically truncated (1-264) cyclin D3 (Homo sapiens, UniProt P11802); assay: Inhibition of CDK4/Cyclin D Retinoblastoma Kinase Activity; type: biochemical; details: for Ki: apparent Ki, CDK4/truncated cyclin D3, Rb fragment substrate, 25 μM ATP
Method in brief: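 The enzyme complex (5 nM), expressed in co-infected insect cells, was incubated with recombinant Rb fragment, 25 μM radiolabelled ATP and 2% DMSO at 30 °C. Reactions were stopped with EDTA after 20 minutes, or 60 minutes for tight-binding inhibitors. Apparent Ki values came from competitive inhibition fits.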

HCT-116 cell line = assay: Inhibition of cell growth, tetrazolium salt (MTT) assay; type: cell-based; details: for HCT-116 % Inhibition at 0.1 μM / HCT-116 5 Inhibition at 0.25 μM: HCT-116 cells; for HCT-116 % Inhibition at 0.25 μM: 0.25 μM compound, Table 2; for IC50: Homo sapiens, HCT-116, 120 h, MTT, three to five days, read-out: HCT-116 IC50
Method in brief: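 Growth inhibition is scored relative to cells receiving only 0.5% (v/v) DMSO. Plated cells rest 4 h, then take compound for three to five days at 37° C; MTT reduction to formazan is read at 540 nm.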

Sequence of human CDK4 and genetically truncated (1-264) cyclin D3 (P11802 whole entry, the tested form may be a part): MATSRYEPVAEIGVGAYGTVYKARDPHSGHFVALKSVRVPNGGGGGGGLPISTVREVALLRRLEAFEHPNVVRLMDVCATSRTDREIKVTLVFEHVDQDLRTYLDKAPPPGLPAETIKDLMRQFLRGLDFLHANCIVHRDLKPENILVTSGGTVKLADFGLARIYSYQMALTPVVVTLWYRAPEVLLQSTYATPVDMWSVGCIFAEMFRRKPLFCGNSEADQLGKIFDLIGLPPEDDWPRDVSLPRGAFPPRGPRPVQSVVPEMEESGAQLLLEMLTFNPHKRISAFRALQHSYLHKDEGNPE
Sequence of human CDK4 and genetically truncated (1-264) cyclin D3 (P30281 1-264 partner): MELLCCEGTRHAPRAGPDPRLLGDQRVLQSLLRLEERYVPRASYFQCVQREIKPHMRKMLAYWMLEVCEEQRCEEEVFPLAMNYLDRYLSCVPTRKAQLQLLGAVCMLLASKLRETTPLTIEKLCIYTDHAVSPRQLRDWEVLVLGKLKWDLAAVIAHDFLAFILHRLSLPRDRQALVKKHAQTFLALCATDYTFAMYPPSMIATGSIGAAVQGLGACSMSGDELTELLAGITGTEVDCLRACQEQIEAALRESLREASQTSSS

SMILES: COc1ccc(OC)c(C(=O)N2CCC(Nc3nc(N)c(C(=O)c4c(F)cccc4F)s3)CC2)c1 [Example R117]
- CDK2 % Inhibition at 0.03 μM (CDK2/Cyclin A): 53%
- CDK4 % Inhibition at 0.03 μM ([1]; at 0.03 μM): 66%
- HCT-116 % Inhibition at 0.1 μM (HCT-116 cell line): 7%
- HCT-116 5 Inhibition at 0.25 μM (HCT-116 cell line): 45

SMILES: Nc1nc(NC2CCN(C(=O)Nc3ccccc3C(F)(F)F)CC2)sc1C(=O)c1c(F)cccc1F [Example O10]
- CDK2 % Inhibition At 0.03 μM (CDK2/Cyclin A): 28%
- CDK4 % Inhibition at 0.03 μM ([1]; 0.03 μM compound, Table 2): 5%
- HCT-116 % Inhibition at 0.25 μM (HCT-116 cell line): 0%

SMILES: CCCC(C)C(=O)N1CCC(Nc2nc(N)c(C(=O)c3c(F)cccc3F)s2)CC1 (stereo not shown) [Example R165]
- CDK2 % Inhibition at 0.03 μM (CDK2/Cyclin A): 3%
- CDK4 % Inhibition at 0.03 μM ([1]; at 0.03 μM): 22%
- HCT-116 % Inhibition at 0.1 μM (HCT-116 cell line): 0%
- HCT-116 5 Inhibition at 0.25 μM (HCT-116 cell line): 42

SMILES: CN(C)CCSCCCS(=O)(=O)N1CCC(Nc2nc(N)c(C(=O)c3c(F)cccc3F)s2)CC1 [Example K24, 1-(4-Amino-2-{1-[3-(2-dimethylamino-ethylsulfanyl)-propane-1-sulfonyl]-piperidin-4-ylamino}-thiazol-5-yl)-1-(2,6-difluoro-phenyl)-methanone.]
- Ki (CDK2/Cyclin A): 5.9 nM
- Ki [1]: 2 nM
- IC50 (HCT-116 cell line; first HCT-116 column (c4)): > 50 nM
- IC50 (HCT-116 cell line; second HCT-116 column (c5)): > 50 nM

SMILES: CC(=O)Nc1ccc(C(=O)N2CCC(Nc3nc(N)c(C(=O)c4c(F)cccc4F)s3)CC2)cc1 [Example R146]
- CDK2 % Inhibition at 0.03 μM (CDK2/Cyclin A): 74%
- CDK4 % Inhibition at 0.03 μM ([1]; at 0.03 μM): 83%
- HCT-116 % Inhibition at 0.1 μM (HCT-116 cell line): 0%
- HCT-116 5 Inhibition at 0.25 μM (HCT-116 cell line): 10

SMILES: Cc1ccc(C)c(NC(=O)N2CCC(Nc3nc(N)c(C(=O)c4c(F)cccc4F)s3)CC2)c1 [Example O42]
- CDK2 % Inhibition At 0.03 μM (CDK2/Cyclin A): 35%
- CDK4 % Inhibition at 0.03 μM ([1]; 0.03 μM compound, Table 2): 10%
- HCT-116 % Inhibition at 0.25 μM (HCT-116 cell line): 26%

SMILES: Nc1nc(NC2CCN(S(=O)(=O)c3ccc(N4CCC[C@H]4CO)nc3)CC2)sc1C(=O)c1c(F)cccc1F [Example G14, 1-{4-Amino-2-{1-[6-(2S-hydroxymethyl-pyrrolidin-1-yl)-pyridine-3-sulfonyl]-piperidin-4-ylamino}-thiazol-5-yl)-1-(2,6-difluoro-phenyl)-methanone Trifluoroacetic Acid Salt]
- Ki (CDK2/Cyclin A): 0.5 nM
- Ki [1]: 0.8 nM
- IC50 (HCT-116 cell line; first HCT-116 column (c4)): 140 nM
- IC50 (HCT-116 cell line; second HCT-116 column (c5)): 3500 nM

SMILES: COC(=O)[C@@H](NC(=O)N1CCC(Nc2nc(N)c(C(=O)c3c(F)cccc3F)s2)CC1)C(C)C [Example O76]
- CDK2 % Inhibition At 0.03 μM (CDK2/Cyclin A): 22%
- CDK4 % Inhibition at 0.03 μM ([1]; 0.03 μM compound, Table 2): 5%
- HCT-116 % Inhibition at 0.25 μM (HCT-116 cell line): 49%

SMILES: CN(C)[C@@H](Cc1ccccc1)C(=O)N1CCC(Nc2nc(N)c(C(=O)c3c(F)cccc3F)s2)CC1 [Example D4, (4-[4-Amino-5-(2,6-difluoro-benzoyl)-thiazol-2-ylamino}-piperidin-1-yl)-2S-dimethylamino-phenyl-propan-1-one]
- Ki (CDK2/Cyclin A): 2600 nM
- Ki [1]: 460 nM
- IC50 (HCT-116 cell line; first HCT-116 column (c4)): > 5000 nM

SMILES: COc1ccc(O)c(C(=O)N2CCC(Nc3nc(N)c(C(=O)c4c(F)cccc4F)s3)CC2)c1 [Example R121]
- CDK2 % Inhibition at 0.03 μM (CDK2/Cyclin A): 57%
- CDK4 % Inhibition at 0.03 μM ([1]; at 0.03 μM): 60%
- HCT-116 % Inhibition at 0.1 μM (HCT-116 cell line): 0%
- HCT-116 5 Inhibition at 0.25 μM (HCT-116 cell line): 37

SMILES: COC(=O)c1cccc(NC(=O)N2CCC(Nc3nc(N)c(C(=O)c4c(F)cccc4F)s3)CC2)c1 [Example O60]
- CDK2 % Inhibition At 0.03 μM (CDK2/Cyclin A): 24%
- CDK4 % Inhibition at 0.03 μM ([1]; 0.03 μM compound, Table 2): 12%
- HCT-116 % Inhibition at 0.25 μM (HCT-116 cell line): 39%

SMILES: CC(C)OC(=O)N1CCC(Nc2nc(N)c(C(=O)c3c(F)cccc3F)s2)CC1 [Example R84]
- CDK2 % Inhibition at 0.03 μM (CDK2/Cyclin A): 4%
- CDK4 % Inhibition at 0.03 μM ([1]; at 0.03 μM): 21%
- HCT-116 % Inhibition at 0.1 μM (HCT-116 cell line): 0%
- HCT-116 5 Inhibition at 0.25 μM (HCT-116 cell line): 41

SMILES: COC(=O)[C@H](CC(C)C)NC(=O)N1CCC(Nc2nc(N)c(C(=O)c3c(F)cccc3F)s2)CC1 [Example O77]
- CDK2 % Inhibition At 0.03 μM (CDK2/Cyclin A): 24%
- CDK4 % Inhibition at 0.03 μM ([1]; 0.03 μM compound, Table 2): 8%
- HCT-116 % Inhibition at 0.25 μM (HCT-116 cell line): 43%
